Reference: PMC7667029, “A Targeted Computational Screen of the SWEETLEAD Database Reveals FDA-Approved Compounds with Anti-Dengue Viral Activity” (mBio, 2020)
pIC50: −log10 of the molar value. “Also recorded” adds a separate entry of the source. Like-named read-outs stand apart in the source and are kept apart here.

Assays:
dengue virus [1] = test: Virucidal activity assay, 60-min incubation of drug with virus, plaque assay on BHK-21 cells; assay type: cell-based
Protocol: (§1) (A) Chemical structures and (B) ROCS overlay of ST-148 and niclosamide. […] Compound addition, viral growth, and cytotoxicity assays were performed as described in the legend to Fig. 2C. (D) Virucidal activity of compounds at the concentrations indicated was measured after 60-min incubation of drugs with virus-containing solutions at 37°C. Viral titer was quantified by plaque assay on BHK-21 cells. n = 3. Statistical significance was evaluated by one-way ANOVA with Sidak’s multiple-comparison test and indicated as follows: *, P < 0.05; **, P < 0.01; ****, P < 0.0001; ns, not significant. […] On the left, cells were pretreated for 2 h prior to infection, compounds were removed during a 1-h infection at an MOI of 0.5 PFU/cell and then readministered after removal of viral inoculum. On the right, cells were similarly infected and compounds were first introduced 4 h after starting the infection. […] (F) To test the effect of ST-148 and niclosamide on viral RNA replication, Huh7 cells were infected for 1 h at an MOI of 0.5 PFU/cell. […] Intracellular RNA was collected at the time points indicated and quantified by qRT-PCR. […] N = 4, two-way ANOVA with Dunnett’s multiple-comparison test. […] After 4 h of infection, 10 μM ST-148 or 1 μM niclosamide was added; extracellular virus was collected at 24 hpi and quantified by plaque assay.
Compounds were diluted to 100× in DMSO, then further diluted 1:100 into phosphate-buffered saline (PBS) containing dengue virus to a final volume of 200 μl and mixed. Aliquots were taken for plaque assays immediately after addition of compounds (time [T] = 0 min) or after incubation at 37°C for 60 min (T = 60 min).

Zika virus = tested on: Zika virus; design: method as in PMID 27571349; conditions: read-out: IC50, previously reported value for Zika virus; cited from earlier work
dengue virus [2] = test: Initial screening of hit compounds for anti-dengue activity in tissue culture cells (Table S1); assay type: cell-based; conditions: viral titer relative to vehicle, tissue culture cell lines (BHK-21 48 hpi, Fig. S1; Huh7, Fig. 2C, 3C, 4C)
Protocol: For each query molecule, the top 500 compound hits obtained from the ROCS algorithm, as ranked by the Tanimoto combo score (see Data Set S1 in the supplemental material), were manually inspected for similar chemical and structural features. They were further prioritized by factors such as a lack of known side effects, commercial availability, and the intellectual property considerations that would be needed for worldwide, inexpensive use. Fourteen candidates were tested for their effects on dengue virus growth and toxicity in BHK-21 and Huh7 cells (see Table S1 and Fig. S1 in the supplemental material).
Supplementary file : TABLE S1 Summary of hits for lead compounds ARDP0006 and ST-148 screened for anti-dengue activity in tissue culture cells. Hit compounds were tested for anti-dengue activity and cell toxicity in tissue culture cell lines. Antiviral activity is summarized as follows: −, not antiviral, with titer greater than 50% of vehicle; +, weakly antiviral, with titer between 20 and 50% of vehicle; ++, moderately antiviral, with titer between 5 and 20% of vehicle; +++, highly antiviral, with titer less than 5% of vehicle. Toxicity at these doses is represented as follows: −, nontoxic, with cell viability greater than 80% of vehicle; +, mild toxicity, with cell viability between 60 and 80% of vehicle; +++, high toxicity, with cell viability less than 60% of vehicle. Data summarized here are depicted graphically in Fig. S1 and Fig. 2C, 3C, and [4]C. The Tanimoto combo score of each hit during initial ROCS screening is indicated; higher Tanimoto combo scores are indicative of increased chemical similarity. Download Table S1, PDF file, 0.04 MB.
Supplementary file : FIG S1 Initial screening of eliminated hit compounds for anti-dengue activity in tissue culture cells. BHK-21 cells were pretreated with the compounds at the indicated concentrations for 30 min, infected with dengue virus at an MOI of 0.1 PFU/cell for 1 h, and then posttreated with compound. At 48 hpi, cellular supernatant was collected and titered by plaque assay (purple). Cell viability in uninfected cells in the presence of compounds for 48 h was measured by WST assay (gray). Both viral titer and cell viability are normalized to their relative DMSO vehicle control, N = 2. Download FIG S1, PDF file, 0.06 MB.

[3] = single dose, ref PubChem database, cited from earlier work
DENV2 = test: Antiviral activity in DENV2-infected Huh7 cells, infectious virus in supernatant by plaque assay; assay type: cell-based, dengue virus
Protocol: FIG 2 Pyrimethamine inhibits dengue virus and NS2B/3 proteinase cleavage like ARDP0006. (A) Chemical structures and (B) ROCS overlay of ARDP0006 and pyrimethamine. […] Infectious virus in cell supernatant was quantified by plaque assay at 24 hpi (left y axis, black or red). Cell viability was measured at the same pyrimethamine doses 24 h posttreatment by WST-1 assay (right y axis, gray). Viral titer and cell viability were normalized to DMSO-treated samples. (D) Splenic titers of DENV2-infected AGB6 mice at 4 days postinfection. Mice were infected with 1 × 10^6 PFU DENV2 and treated twice daily with 20 mg/kg pyrimethamine (n = 9) or a vehicle control (n = 10). Data were analyzed by two-tailed unpaired t test. (E) Cleavage kinetics of NS2B/3/4A in the presence of 100 μM pyrimethamine. NS2B/3/4A protein was expressed in vitro and radiolabeled with [^35S]methionine, followed by treatment with 100 μM pyrimethamine or DMSO. Reaction samples were obtained over a 45-min time course, separated by SDS-PAGE, and the fraction of uncleaved proteinase precursor remaining was determined as described previously ([23]). Data from three replicates were fit using single-phase exponential decay functions, and P value was determined by comparing the rate constant, K, of the models using the extra sum-of-squares F test.
Dengue plaque assays were carried out on BHK-21 cells in 24-well plates. Cells were infected with 10-fold serial dilutions of virus, which were allowed to adsorb for at least 1 h at 37°C, and overlaid with standard cell culture medium plus 0.37% (w/vol) sodium bicarbonate and 0.8% (w/vol) Aquacide II (Millipore Calbiochem). After 7 days of incubation at 37°C, 5% CO2, cells were fixed with 5% (final) formaldehyde and stained with crystal violet for plaque enumeration.
Between 4 × 10^4 and 1 × 10^5 Huh7 cells per well were seeded into 24-well plates 1 day prior to infection. Compounds were diluted to 100× final concentration in DMSO and then further diluted 1:100 into appropriate cell culture. Unless otherwise indicated, tested compounds were present for 1 h pretreatment and readministered for posttreatment following infection. […] Media and drugs were removed from cells for infection at a multiplicity of infection (MOI) of 0.1 or 0.5 in 200 μl cold medium per well. After 1 h at 37°C, virus inoculum was removed by aspiration and replaced with medium plus compound or control. After 24-h total infection, infectious virus was quantified by plaque assay. Antiviral IC50 dose-response curves were fitted in GraphPad Prism 8 using the “[inhibitor] versus response, variable slope” function with a constraint “bottom > 0.” IC90 values are defined as the dose at which “y = (span × 0.1) + bottom.”

dengue viral RNA = test: Intracellular viral RNA quantification by qRT-PCR in infected Huh7 cells; assay type: cell-based, dengue virus; conditions: added 4 h postinfection at IC90 dose (5.6 μM ST-148, 0.66 μM niclosamide)
Protocol: as §1

For `O=C(Nc1ccc([N+](=O)[O-])cc1Cl)c1cc(Cl)ccc1O` [Niclosamide, niclosamide], the “Virucidal effect of the combination with ST-148” value (dengue virus [1]; 1 μM niclosamide added to 0.1 μM ST-148, 1 h at 37°C) is given as “significantly increased the virucidal effect of ST-148; also recorded: augment the virucidal activity of ST-148”, the “Virucidal activity (viral infectivity after coincubation)” value (dengue virus [1]; niclosamide alone at a much higher concentration, 1 h at 37°C) is given as “significantly, albeit slightly, virucidal” and the pIC50 (Zika virus) is given as 6.55. For the same molecule, the Antiviral (dengue virus [2]) was “+++ (highly antiviral, with titer less than 5% of vehicle)”, the LD50 ([3]; IP) was 7.5 mg/kg and the LD50 ([3]; Oral) was 1000 mg/kg. The “Virion production at increased dose after entry” value (DENV2; 10 μM ST-148 or 1 μM niclosamide added after 4 h of infection, extracellular virus at 24 hpi) was “effective during later, postentry stages; also recorded: inhibited virion production”, the IC90 (DENV2; Dengue virus, Huh-7, DENV2-infected Huh7 cells, from dose-response curve fit, 24 hpi) was 660 nM and the pIC50 (DENV2; Dengue virus, Huh-7, DENV2-infected Huh7 cells, single infectious cycle, plaque assay at 24 hpi, read-out: IC50 of viral inhibition (infectious extracellular virus)) was 6.55. The “Viral titer on delayed addition of compound” value (DENV2; IC90 dose first added 4 h after infection, Huh7, 24 hpi) was “eliminated the observed reduction of viral titer” and the “Viral RNA abundance” value (dengue viral RNA) was “no difference in viral RNA abundance”.
